Results: patent US8541588B2, “Sulfonamide derivatives” (Pfizer Limited, priority 2009, dated 2013)

Target: T1, Nav1.7 (or SCN9A) channel; HEK cells stably transfected with hSCN9A (Homo sapiens, UniProt Q15858)
T1 construct: expressed in transfected cells
Assay: Nav1.7 block, PatchXpress 7000 automated whole-cell voltage clamp, estimated IC50 (EIC50)
Format: cell-based
Settings: PatchXpress platform; hSCN9A HEK cells held at V1/2 of inactivation; estimated IC50

T1 sequence (Q15858 whole entry): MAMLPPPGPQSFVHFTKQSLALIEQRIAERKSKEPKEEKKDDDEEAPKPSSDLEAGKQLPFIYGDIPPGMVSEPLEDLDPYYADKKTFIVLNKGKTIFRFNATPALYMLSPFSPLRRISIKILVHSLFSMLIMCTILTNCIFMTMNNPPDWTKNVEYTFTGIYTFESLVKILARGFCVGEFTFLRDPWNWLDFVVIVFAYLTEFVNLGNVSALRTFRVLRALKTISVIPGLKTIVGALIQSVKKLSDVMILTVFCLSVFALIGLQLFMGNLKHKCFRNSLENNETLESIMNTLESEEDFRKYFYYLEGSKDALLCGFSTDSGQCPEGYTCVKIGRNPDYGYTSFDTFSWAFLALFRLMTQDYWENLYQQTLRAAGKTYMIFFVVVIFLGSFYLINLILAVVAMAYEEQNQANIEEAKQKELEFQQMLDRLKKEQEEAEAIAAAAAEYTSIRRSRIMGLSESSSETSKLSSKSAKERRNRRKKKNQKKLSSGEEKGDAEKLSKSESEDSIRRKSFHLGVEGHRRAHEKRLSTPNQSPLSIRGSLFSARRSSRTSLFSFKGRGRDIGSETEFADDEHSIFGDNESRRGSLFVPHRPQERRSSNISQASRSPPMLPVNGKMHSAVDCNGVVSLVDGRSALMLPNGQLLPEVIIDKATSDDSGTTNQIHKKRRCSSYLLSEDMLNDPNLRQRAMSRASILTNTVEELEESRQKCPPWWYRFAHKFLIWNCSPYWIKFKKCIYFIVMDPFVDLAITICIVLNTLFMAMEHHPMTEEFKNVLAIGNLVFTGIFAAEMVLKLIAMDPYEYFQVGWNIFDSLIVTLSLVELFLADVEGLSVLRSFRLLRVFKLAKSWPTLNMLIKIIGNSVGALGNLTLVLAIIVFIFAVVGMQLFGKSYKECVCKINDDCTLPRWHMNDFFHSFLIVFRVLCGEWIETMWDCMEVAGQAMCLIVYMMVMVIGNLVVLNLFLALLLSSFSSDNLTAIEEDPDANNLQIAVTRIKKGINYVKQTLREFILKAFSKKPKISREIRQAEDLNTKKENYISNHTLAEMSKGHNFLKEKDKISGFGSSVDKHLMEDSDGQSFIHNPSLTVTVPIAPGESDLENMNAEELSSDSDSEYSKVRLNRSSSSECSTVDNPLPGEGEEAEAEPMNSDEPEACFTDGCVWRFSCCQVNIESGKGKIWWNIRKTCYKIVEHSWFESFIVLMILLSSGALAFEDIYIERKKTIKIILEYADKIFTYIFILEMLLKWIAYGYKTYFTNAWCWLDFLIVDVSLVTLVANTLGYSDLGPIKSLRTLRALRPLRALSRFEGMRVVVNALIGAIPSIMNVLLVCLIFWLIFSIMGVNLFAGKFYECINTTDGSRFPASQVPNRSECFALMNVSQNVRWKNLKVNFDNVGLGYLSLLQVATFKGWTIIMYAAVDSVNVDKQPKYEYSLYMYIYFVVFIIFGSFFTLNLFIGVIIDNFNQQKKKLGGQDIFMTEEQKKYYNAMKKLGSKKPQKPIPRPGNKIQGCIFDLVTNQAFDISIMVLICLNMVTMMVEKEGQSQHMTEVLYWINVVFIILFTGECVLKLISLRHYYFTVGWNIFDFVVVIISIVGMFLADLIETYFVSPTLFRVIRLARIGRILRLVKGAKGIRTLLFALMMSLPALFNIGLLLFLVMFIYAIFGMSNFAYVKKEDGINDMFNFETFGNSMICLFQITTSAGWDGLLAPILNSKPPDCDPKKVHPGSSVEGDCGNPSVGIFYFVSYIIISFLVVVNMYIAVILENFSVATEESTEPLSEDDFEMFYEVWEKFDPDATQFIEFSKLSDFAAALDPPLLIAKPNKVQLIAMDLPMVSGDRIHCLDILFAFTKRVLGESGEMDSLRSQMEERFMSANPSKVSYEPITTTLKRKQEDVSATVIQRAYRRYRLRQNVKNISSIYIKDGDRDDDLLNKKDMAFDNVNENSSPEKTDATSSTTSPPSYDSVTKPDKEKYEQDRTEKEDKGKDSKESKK

IC50	Compound
710 nM	O=S(=O)(Nc1nccs1)c1ccc(Oc2cc(C(F)(F)F)nn2-c2ccccc2F)c(F)c1 [Example 230, 3-fluoro-4-[2-(2-fluoro-phenyl)-5-trifluoromethyl-2H-pyrazol-3-yloxy]-N-thiazol-2-yl-benzenesulfonamide]
50 nM	N#Cc1cc(S(=O)(=O)Nc2nccs2)ccc1Oc1ccccc1-c1ccccc1 [Example 165, 4-(biphenyl-2-yloxy)-3-cyano-N-(thiazol-2-yl)benzenesulfonamide]
310 nM	N#Cc1cc(S(=O)(=O)Nc2nccs2)ccc1Oc1ccc(F)cc1-c1ccc(F)c(F)c1 [Example 158, 3-cyano-N-1,3-thiazol-2-yl-4-[(3′,4′,5-trifluorobiphenyl-2-yl)oxy]benzenesulfonamide]
15900 nM	O=S(=O)(Nc1ncns1)c1ccc(Oc2ccccc2-c2ccccc2)cc1C(F)(F)F [Example 260, 4-(biphenyl-2-yloxy)-N-1,2,4-thiadiazol-5-yl-2-(trifluoromethyl)benzenesulfonamide]
13900 nM	O=S(=O)(Nc1nccs1)c1ccc(Oc2ncncc2-c2ccccc2)c(F)c1 [Example 236, 3-fluoro-4-(5-phenylpyrimidin-4-yloxy)-N-(thiazol-2-yl)benzenesulfonamide]
1080 nM	N#Cc1cc(S(=O)(=O)Nc2nccs2)ccc1Oc1cc(C2CC2)nn1-c1cc(F)ccc1F [Example 195, 3-Cyano-4-[5-cyclopropyl-2-(2,5-difluoro-phenyl)-2H-pyrazol-3-yloxy]-N-thiazol-2-yl-benzenesulfonamide]
12500 nM	COc1nsc(NS(=O)(=O)c2ccc(Oc3ccccc3-c3ccccc3)c(C#N)c2)n1 [Example 96, 4-(biphenyl-2-yloxy)-3-cyano-N-(3-methoxy-1,2,4-thiadiazol-5-yl)benzenesulfonamide]
25500 nM	Cc1ccc(-c2ncccc2Oc2ccc(S(=O)(=O)Nc3ncns3)cc2C#N)cc1 [Example 17, 3-cyano-4-{[2-(4-methylphenyl)pyridin-3-yl]oxy}-N-1,2,4-thiadiazol-5-ylbenzenesulfonamide]
90 nM	COCc1ccc(Oc2ccc(S(=O)(=O)Nc3nccs3)cc2F)c(-c2ccnn2C)c1 [Example 234, 3-fluoro-4-(4-(methoxymethyl)-2-(1-methyl-1H-pyrazol-5-yl)phenoxy)-N-(thiazol-2-yl)benzenesulfonamide]
480 nM	O=S(=O)(Nc1ncns1)c1ccc(Oc2ccccc2-c2ccccc2)c(F)c1F [Example 269, 4-(biphenyl-2-yloxy)-2,3-difluoro-N-1,2,4-thiadiazol-5-ylbenzenesulfonamide]

Same assay, conditions: estimated IC50; hSCN9A HEK cells, PatchXpress platform; Examples 283-814

IC50	Compound
22 nM	O=S(=O)(Nc1ncc(F)s1)c1cc(F)c(Oc2ccc(Cl)cc2-c2cn[nH]c2)cc1F [Example 683, 4-[4-chloro-2-(1H-pyrazol-4-yl)phenoxy]-2,5-difluoro-N-(5-fluoro-1,3-thiazol-2-yl)benzenesulfonamide]
140 nM	Cn1nccc1-c1cc(F)ccc1Oc1cc(F)c(S(=O)(=O)Nc2nncs2)cc1Cl [Example 298, 5-chloro-2-fluoro-4-[4-fluoro-2-(1-methyl-1H-pyrazol-5-yl)phenoxy]-N-1,3,4-thiadiazol-2-ylbenzenesulfonamide]
44 nM	CC(C)(C)n1nccc1-c1cc(Cl)ccc1Oc1ccc(S(=O)(=O)Nc2ncns2)cc1Cl [Example 474, 4-[2-(1-tert-butyl-1H-pyrazol-5-yl)-4-chlorophenoxy]-3-chloro-N-1,2,4-thiadiazol-5-ylbenzenesulfonamide]
3100 nM	Cn1nccc1-c1cc(Cl)ccc1Oc1ccc(S(=O)(=O)Nc2ncc(F)cc2F)cc1F [Example 667, 4-[4-chloro-2-(1-methyl-1H-pyrazol-5-yl)phenoxy]-N-(3,5-difluoropyridin-2-yl)-3-fluorobenzenesulfonamide]
>1000 nM	O=S(=O)(Nc1cscn1)c1cc(Cl)c(Oc2cc(C(F)(F)F)ccc2-c2cncnc2)cc1F [Example 518, 5-chloro-2-fluoro-4-[2-pyrimidin-5-yl-5-(trifluoromethyl)phenoxy]-N-1,3-thiazol-4-ylbenzenesulfonamide]
4.8 nM	Nc1n[nH]cc1-c1cc(Cl)ccc1Oc1cc(F)c(S(=O)(=O)Nc2nncs2)cc1Cl [Example 803, 4-[2-(5-amino-1H-pyrazol-4-yl)-4-chlorophenoxy]-5-chloro-2-fluoro-N-1,3,4-thiadiazol-2-ylbenzenesulfonamide]
160 nM	Cn1nccc1-c1cc(C#N)ccc1Oc1ccc(S(=O)(=O)Nc2nccs2)cc1F [Example 721, 4-[4-Cyano-2-(1-methyl-1H-pyrazol-5-yl)phenoxy]-3-fluoro-N-1,3-thiazol-2-ylbenzenesulfonamide]
83 nM	Cn1nccc1-c1cc(F)ccc1Oc1cc(F)c(S(=O)(=O)Nc2cscn2)cc1Cl [Example 657, 5-chloro-2-fluoro-4-[4-fluoro-2-(1-methyl-1H-pyrazol-5-yl)phenoxy]-N-1,3-thiazol-4-ylbenzenesulfonamide]
3300 nM	Cn1cc(C(F)(F)F)nc1-c1ccc(Oc2ccc(S(=O)(=O)Nc3nccs3)cc2C#N)cc1 [Example 320, 3-cyano-4-{4-[1-methyl-4-(trifluoromethyl)-1H-imidazol-2-yl]phenoxy}-N-1,3-thiazol-2-ylbenzenesulfonamide]
>3000 nM	COc1cc(Oc2ccc(S(=O)(=O)Nc3ccc(F)cn3)cc2C#N)ccc1-n1cccn1 [Example 579, 3-cyano-N-(5-fluoropyridin-2-yl)-4-[3-methoxy-4-(1H-pyrazol-1-yl)phenoxy]benzenesulfonamide]
280 nM	Cn1nccc1-c1cc(Cl)ccc1Oc1cc(F)c(S(=O)(=O)Nc2nncs2)cc1F [Example 301, 4-[4-chloro-2-(1-methyl-1H-pyrazol-5-yl)phenoxy]-2,5-difluoro-N-1,3,4-thiadiazol-2-ylbenzenesulfonamide]
11000 nM	N#Cc1cc(S(=O)(=O)Nc2cscn2)ccc1Oc1cccc(Cc2cc[nH]n2)c1 [Example 768, 3-cyano-4-[3-(1H-pyrazol-3-ylmethyl)phenoxy]-N-1,3-thiazol-4-ylbenzenesulfonamide]
140 nM	N#Cc1cc(S(=O)(=O)Nc2cscn2)ccc1Oc1ccc(Cl)cc1-c1ccnc(N)c1 [Example 392, 4-[2-(2-aminopyridin-4-yl)-4-chlorophenoxy]-3-cyano-N-1,3-thiazol-4-ylbenzenesulfonamide]
22 nM	O=S(=O)(Nc1ncns1)c1cc(F)c(Oc2ccc(F)cc2-c2ccn[nH]2)cc1F [Example 781, 2,5-difluoro-4-[4-fluoro-2-(1H-pyrazol-5-yl)phenoxy]-N-1,2,4-thiadiazol-5-ylbenzenesulfonamide]
44 nM	Cn1nc(C(F)(F)F)cc1-c1ccc(Oc2ccc(S(=O)(=O)Nc3nccs3)cc2C#N)c(C#N)c1 [Example 292, 3-cyano-4-{2-cyano-4-[1-methyl-3-(trifluoromethyl)-1H-pyrazol-5-yl]phenoxy}-N-1,3-thiazol-2-ylbenzenesulfonamide]
1900 nM	N#Cc1cc(S(=O)(=O)Nc2cscn2)ccc1Oc1ccc(C(F)(F)F)cc1-c1cnn(C2CNC2)c1 [Example 727, 4-[2-(1-azetidin-3-yl-1H-pyrazol-4-yl)-4-(trifluoromethyl)phenoxy]-3-cyano-N-1,3-thiazol-4-ylbenzenesulfonamide]
22000 nM	Cn1nccc1-c1cc(Cl)ccc1Oc1ccc(S(=O)(=O)Nc2ncc(C#N)cn2)cc1C#N [Example 463, 4-[4-chloro-2-(1-methyl-1H-pyrazol-5-yl)phenoxy]-3-cyano-N-(5-cyanopyrimidin-2-yl)benzenesulfonamide]
>30000 nM	COc1cc(Oc2ccc(S(=O)(=O)Nc3ccc(F)cn3)cc2C#N)ccc1-n1cnc(C)c1 [Example 575, 3-cyano-N-(5-fluoropyridin-2-yl)-4-[3-methoxy-4-(4-methyl-1H-imidazol-1-yl)phenoxy]benzenesulfonamide]
210 nM	Cn1nccc1-c1cc(CCCO)ccc1Oc1ccc(S(=O)(=O)Nc2ncc(F)s2)cc1C#N [Example 715, 3-cyano-N-(5-fluoro-1,3-thiazol-2-yl)-4-[4-(3-hydroxypropyl)-2-(1-methyl-1H-pyrazol-5-yl)phenoxy]benzenesulfonamide]
3300 nM	N#Cc1cc(S(=O)(=O)Nc2nccs2)ccc1Oc1ccc(-n2cccn2)cc1 [Example 469, 3-cyano-4-[4-(1H-pyrazol-1-yl)phenoxy]-N-1,3-thiazol-2-ylbenzenesulfonamide]
81 nM	Cn1cc(-c2cc(Cl)ccc2Oc2ccc(S(=O)(=O)Nc3nccs3)cc2C#N)cn1 [Example 693, 4-[4-chloro-2-(1-methyl-1H-pyrazol-4-yl)phenoxy]-3-cyano-N-1,3-thiazol-2-ylbenzenesulfonamide]

Same assay, conditions: estimated IC50; hSCN9A HEK cells, PatchXpress platform; Examples 815-1040

IC50	Compound
>3000 nM	N#Cc1cc(S(=O)(=O)Nc2ccc(F)cn2)ccc1Oc1ccccc1C1CCCCO1 (stereo not drawn) [Example 1005, 3-cyano-N-(5-fluoropyridin-2-yl)-4-[2-(tetrahydro-2H-pyran-2-yl)phenoxy]benzenesulfonamide]
74 nM	O=S(=O)(Nc1ncns1)c1cnc(Oc2ccc(C(F)(F)F)cc2-c2ccnnc2)c(Cl)c1 [Example 974, 5-chloro-6-[2-pyridazin-4-yl-4-(trifluoromethyl)phenoxy]-N-1,2,4-thiadiazol-5-ylpyridine-3-sulfonamide]
13 nM	O=S(=O)(Nc1cscn1)c1cc(F)c(Oc2ccc(Cl)cc2-c2ccnc(CN3CCC3)c2)cc1F [Example 1032, 4-{2-[2-(Azetidin-1-ylmethyl)pyridin-4-yl]-4-chlorophenoxy}-2,5-difluoro-N-1,3-thiazol-4-ylbenzenesulfonamide]
67 nM	Nc1cc(-c2cc(Cl)ccc2Oc2cc(F)c(S(=O)(=O)Nc3ncccn3)cc2Cl)ccn1 [Example 926, 4-[2-(2-aminopyridin-4-yl)-4-chlorophenoxy]-5-chloro-2-fluoro-N-pyrimidin-2-ylbenzenesulfonamide]
9.9 nM	N#Cc1cc(S(=O)(=O)Nc2cscn2)ccc1Oc1ccc(OC(F)(F)F)cc1-c1ccnn1C1CNC1 [Example 962, 4-[2-(1-azetidin-3-yl-1H-pyrazol-5-yl)-4-(trifluoromethoxy)phenoxy]-3-cyano-N-1,3-thiazol-4-ylbenzenesulfonamide]
